Here are results for five compounds from ChEMBL document CHEMBL4311970 (Eur J Med Chem, 2019).

Experiment [1] in a line: Cytotoxicity against human NHBE cells assessed as reduction in cell viability incubated for 72 hrs by SRB assay. Type of experiment: cell-based.
The nature of experiment [2]: Antiproliferative activity against human KBVIN cells assessed as reduction in cell viability incubated for 72 hrs by SRB assay. The experiment is classed as functional, cell-based.
In the next experiment the test system is A549. The experiment in a line: Antiproliferative activity against human A549 cells assessed as reduction in cell viability incubated for 72 hrs by SRB assay. Type of experiment: functional, cell-based. To be noted: A549, 72 h.
Another experiment has as its system MCF7. Nature of the experiment: Antiproliferative activity against human MCF7 cells assessed as reduction in cell viability incubated for 72 hrs by SRB assay. The experiment is classed as functional, cell-based. The conditions noted are these: MCF7, 72 h.
Another experiment has as its system KB. The experiment in a line: Antiproliferative activity against human KB cells assessed as reduction in cell viability incubated for 72 hrs by SRB assay. The experiment is classed as functional, cell-based.
The test system of the next experiment is MDA-MB-231. Nature of the experiment: Antiproliferative activity against human MDA-MB-231 cells assessed as reduction in cell viability incubated for 72 hrs by SRB assay. Type of experiment: functional, cell-based. To be noted: MDA-MB-231, 72 h.
The target of experiment [3] is T1, M-phase inducer phosphatase 3 (Homo sapiens) (UniProt P30307).
T1 sequence (whole entry): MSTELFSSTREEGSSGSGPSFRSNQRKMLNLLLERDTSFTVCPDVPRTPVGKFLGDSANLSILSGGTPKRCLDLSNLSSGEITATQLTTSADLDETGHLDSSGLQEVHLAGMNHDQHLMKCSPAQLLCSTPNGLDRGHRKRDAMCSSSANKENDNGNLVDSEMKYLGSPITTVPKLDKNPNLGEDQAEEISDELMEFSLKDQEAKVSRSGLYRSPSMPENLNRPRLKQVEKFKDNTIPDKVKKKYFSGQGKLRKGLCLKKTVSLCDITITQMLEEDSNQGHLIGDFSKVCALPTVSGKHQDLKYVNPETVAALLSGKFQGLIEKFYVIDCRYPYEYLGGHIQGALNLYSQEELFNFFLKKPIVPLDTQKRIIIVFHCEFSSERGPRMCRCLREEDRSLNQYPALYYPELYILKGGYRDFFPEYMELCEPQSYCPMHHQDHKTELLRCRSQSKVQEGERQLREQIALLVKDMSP
The experiment in a line: Inhibition of recombinant human Cdc25C at 10 uM using OMFP as substrate preincubated for 5 to 8 mins and measured every 5 mins 60 mins by fluorescence based assay.

The target of experiment [4] is T2, M-phase inducer phosphatase 2 (Homo sapiens) (UniProt P30305).
T2 sequence (whole entry): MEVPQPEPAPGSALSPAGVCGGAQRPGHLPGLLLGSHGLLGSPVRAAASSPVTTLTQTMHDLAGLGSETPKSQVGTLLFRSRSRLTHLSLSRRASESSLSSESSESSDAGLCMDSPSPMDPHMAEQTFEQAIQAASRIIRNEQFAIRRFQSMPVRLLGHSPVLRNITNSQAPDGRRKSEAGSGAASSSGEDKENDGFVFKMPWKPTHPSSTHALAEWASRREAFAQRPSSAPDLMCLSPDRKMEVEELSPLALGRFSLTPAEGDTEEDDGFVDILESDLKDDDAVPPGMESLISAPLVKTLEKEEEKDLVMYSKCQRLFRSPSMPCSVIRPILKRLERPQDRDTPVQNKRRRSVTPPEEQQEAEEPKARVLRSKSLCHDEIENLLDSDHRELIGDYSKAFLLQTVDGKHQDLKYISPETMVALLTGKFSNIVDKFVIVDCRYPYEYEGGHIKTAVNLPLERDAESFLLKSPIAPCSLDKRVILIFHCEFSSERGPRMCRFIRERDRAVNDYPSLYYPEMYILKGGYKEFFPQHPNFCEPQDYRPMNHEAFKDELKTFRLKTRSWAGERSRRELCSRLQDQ
The experiment in a line: Inhibition of recombinant human Cdc25B at 10 uM using OMFP as substrate preincubated for 5 to 8 mins and measured every 5 mins 60 mins by fluorescence based assay.

In experiment [5] the target is T3, M-phase inducer phosphatase 1 (Homo sapiens) (UniProt P30304).
T3 sequence (whole entry): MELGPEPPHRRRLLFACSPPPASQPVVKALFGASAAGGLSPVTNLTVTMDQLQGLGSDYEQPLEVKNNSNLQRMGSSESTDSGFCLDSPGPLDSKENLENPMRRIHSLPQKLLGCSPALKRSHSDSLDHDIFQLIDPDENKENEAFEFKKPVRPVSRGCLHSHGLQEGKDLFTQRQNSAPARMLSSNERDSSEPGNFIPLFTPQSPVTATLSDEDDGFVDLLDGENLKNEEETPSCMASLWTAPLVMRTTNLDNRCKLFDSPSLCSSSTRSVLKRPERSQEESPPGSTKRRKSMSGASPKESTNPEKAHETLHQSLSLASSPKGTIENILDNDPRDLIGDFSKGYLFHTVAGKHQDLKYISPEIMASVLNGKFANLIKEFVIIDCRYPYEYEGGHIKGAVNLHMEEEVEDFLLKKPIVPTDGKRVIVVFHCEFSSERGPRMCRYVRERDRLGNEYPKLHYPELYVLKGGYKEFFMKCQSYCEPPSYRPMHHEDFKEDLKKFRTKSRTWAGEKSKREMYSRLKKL
Nature of the experiment: Inhibition of recombinant human Cdc25A at 10 uM using OMFP as substrate preincubated for 5 to 8 mins and measured every 5 mins 60 mins by fluorescence based assay relative to control.

Experiment [6] addresses T4, M-phase inducer phosphatase 3 (Homo sapiens, UniProt P30307).
T4 sequence (P30307 whole entry): T1 sequence (whole entry)
Nature of the experiment: Inhibition of recombinant human Cdc25C using OMFP as substrate preincubated for 5 to 8 mins and measured every 5 mins 60 mins by fluorescence based assay.

Experiment [7] deals with T5, M-phase inducer phosphatase 2 (Homo sapiens, UniProt P30305).
T5 sequence (P30305 whole entry): T2 sequence (whole entry)
Nature of the experiment: Inhibition of recombinant human Cdc25B using OMFP as substrate preincubated for 5 to 8 mins and measured every 5 mins 60 mins by fluorescence based assay.

Experiment [8] concerns the target T6, M-phase inducer phosphatase 1 (Homo sapiens, UniProt P30304).
T6 sequence (P30304 whole entry): T3 sequence (whole entry)
The experiment in a line: Inhibition of recombinant human Cdc25A using OMFP as substrate preincubated for 5 to 8 mins and measured every 5 mins 60 mins by fluorescence based assay.

For experiment [9], the species on record is Homo sapiens. The experiment in a line: Selectivity index, ratio of IC50 for recombinant human Cdc25A to IC50 for recombinant human Cdc25C.
For experiment [10], the species on record is Homo sapiens. Nature of the experiment: Selectivity index, ratio of IC50 for recombinant human Cdc25B to IC50 for recombinant human Cdc25C.
Experiment [11] has as its target T1, M-phase inducer phosphatase 3 (Homo sapiens). The experiment in a line: Potency index, ratio of IC50 of NSC663284 to IC50 of compound for inhibition of recombinant human Cdc25C using OMFP as substrate preincubated for 5 to 8 mins and measured every 5 mins 60 mins by fluorescence based assay.

Calls of active or inactive are those of the source. The calls are words filed in the database; no cut-off is given here.

For the compound `CC(=O)O[C@H]1C(=O)[C@@]2(C)[C@H]([C@H](OC(=O)c3ccccc3)[C@]3(O)C[C@H](OC(=O)[C@H](O)[C@@H](NC(=O)c4ccccc4)c4ccccc4)C(C)=C1C3(C)C)[C@]1(OC(C)=O)CO[C@@H]1C[C@@H]2O` [PACLITAXEL], the IC50 in experiment [1] was determined as 36.5 µM; in experiment [2] it was 3.15 µM; in the experiment on A549, 0.00752 µM.

Turning to `O=C1C(Cl)=C(NCCN2CCOCC2)C(=O)c2ncccc21`, the IC50 in experiment [1] came out at 3.31 µM; with MCF7, 1 µM; in [2], 4.87 µM; in the experiment with KB, 4.89 µM; with MDA-MB-231, 4.97 µM; in the experiment on A549, 2.76 µM. The inhibition entry in experiment [3] and in experiment [4] was “Active” throughout. For the same compound, the inhibition in experiment [5] was 48.4%.

`N#Cc1cccc(Cn2cc(CNC3=C(Cl)C(=O)c4cccnc4C3=O)nn2)c1`: the IC50 in [1] came to 6.43 µM; in the experiment with MCF7, 4.84 µM; in [2], 11.6 µM; with KB, 5.01 µM; in the experiment with MDA-MB-231 it was 4.9 µM; in the experiment on A549, 4.92 µM. The IC50 in [6] amounted to 0.21 µM; in experiment [7], 1 µM; in [8], 0.54 µM. The inhibition entry in experiment [3] and in experiment [4] was “Active” each time. The inhibition in [5] was found to be 69.1%.

As to `N#Cc1ccccc1Cn1cc(CNC2=C(Cl)C(=O)c3cccnc3C2=O)nn1`, the IC50 in [1] came out at 2.18 µM; in the experiment on MCF7, 4.7 µM; in [2] it was 9.02 µM; in the experiment with KB, 5.13 µM; in the experiment on MDA-MB-231 it was 4.86 µM; in the experiment on A549, 4.5 µM. For the same compound, the concentration for half-maximal inhibition (IC50) in [6] came to 0.42 µM; in [7], 2.79 µM; in [8] it was 1.2 µM. Besides, the inhibition entry in [3] and in [4] was “Active” each time. Further, in experiment [5], the inhibition came to 57.2%.

Take `Cc1ccc(Cn2cc(CNC3=C(Cl)C(=O)c4cccnc4C3=O)nn2)cc1`: the IC50 in experiment [1] was 6 µM; in the experiment with MCF7, 4.71 µM; in experiment [2] it was 6.81 µM; in the experiment on KB, 5.05 µM; in the experiment with MDA-MB-231 it was 4.63 µM; in the experiment on A549 it was 3.92 µM. The results for the IC50 in [6], in experiment [7] and in experiment [8] were 0.09 µM, 1.39 µM and 0.53 µM, respectively. For the same compound, the values for the Ratio IC50 (in the experiment filed under Homo sapiens [9]; in the experiment filed under Homo sapiens [10]; in experiment [11]) were 6, 15 and 9, respectively. The inhibition entry in [3] and in experiment [4] was “Active” each time. Further, in experiment [5], the inhibition amounted to 74.4%.
